In US20080287396A1, “Phosphonated Fluoroquinolones, Antibacterial Analogs Thereof, and Methods for the Prevention and Treatment of Bone and Joint Infections” (TARGANTA THERAPEUTICA INC., priority 2005, published 2008):

How the values were obtained:
S. aureus ATCC 13709 = assay: Combination with Rifampicin in treatment of osteomyelitis induced in rats; assay type: in vivo, rat; conditions: 34 mg/kg 54 IV + 20 mg/kg Rifampicin s.c. on days 14, 15, 16, 17 after surgery; titer on day 43
Method: The cells were washed twice with phosphate-buffered saline (PBS) and resuspended in BHIB supplemented with 10% (vol./vol.) fetal bovine serum at a density of approximately 10^10 colony forming units (CFU)/ml (based upon turbidimetry). The suspension was aliquoted and a portion was used to check the CFU count. The culture was stored frozen (−80° C.) and was used without subculture. For use as an inoculum the culture was thawed, diluted in PBS and kept in an ice bath until it was used.
Animals were infected as described by O'Reilly et al. (Antimicrobial Agents and Chemotherapy (1992), 36(12): 2693-97) to generate the bone infection. Female CD rats (age, 57 to 70 days; n=5/group; Charles River, St-Constant, Canada) were anaesthetized by isofluorane before and during the surgery. Following complete induction of anesthesia, the rat was placed ventral side up and hair was shaved from the surgical site. The skin over the leg was cleaned and disinfected (proviodine-ethanol 70%). A longitudinal incision below the knee joint was made in the sagital plane. The incision was made over the bone below the “knee joint” (tibia head or condyle) but not completely extending to the ankle. A high speed drill fitted with a 2 mm bulb bit was used to drill a hole into the medullar cavity of the tibia. […]

Hela cells = assay: Cytotoxicity assay (MTS reduction); assay type: cell-based; conditions: concentrations up to 100 μM, 18 h, MTS reagent; data not shown
How it was run: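 HeLa cells (2×10^4 per well) exposed to compound at 100, 50, 25 and 12.5 μM in DMEM with 1% bovine growth serum, 18 h at 37° C., 5% CO2. Growth inhibition read by MTS tetrazolium reduction.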

[1] = Regenerated moxifloxacin in infected and uninfected rat tibiae; assay type: in vivo; conditions: 52 IV 15.8 or 31.6 mg/kg one day after surgery; tibiae one and six days after treatment
Method: Rats were infected as in Example 7, and treated IV with either 15.8 or 31.6 mg/kg of body weight of prodrug 52 one day after surgery. One day and six days following the treatment, the tibiae were collected as described previously. The levels of regenerated moxifloxacin 3 were determined as follows.
The experimentally obtained whole tibia was ground to a powder which was suspended in 5% formic acid in methanol (500 mg/1.6 ml) to extract the released moxifloxacin 3. The mixture was vortexed for 10 minutes and centrifuged for 20 minutes at 1250 g.
Standards (from 5 to 1000 ng), QCs (25 and 250 ng) and blanks were prepared (in duplicate) as follows: to blank tibia powder (50 mg, not dried) was added the 5% formic acid solution in methanol (160 μl) and the spiking solution of moxifloxacin 3 in water (10 μl). The mixtures were vortexed for 10 minutes and centrifuged for 10 minutes at 2500 g. The supernatant was transferred into another vial, spiked with the internal standard, vortexed and evaporated to dryness. In each case, the resulting dried residues (samples, standards, QCs and blanks) were reconstituted in 200 μl of water, vortexed for 15 min and centrifuged for 15 min at 10 000 g. The solution (20 μl) was injected into the LC/MS. The LC/MS method is as described in Example 6.

level of regenerated moxifloxacin 3, uninfected versus infected tibiae [1] | Compound | bacterial titer in the infected tibiae, combination with Rifampicin (S. aureus ATCC 13709) | cytotoxicity (Hela cells)
– | COc1c(N2CCNC(C)C2)c(F)cc2c(=O)c(C(=O)OCC(=O)NC(P(=O)(O)O)P(=O)(O)O)cn(C3CC3)c12 (stereo not drawn) [Compound 54, (1,1-Bisphosphonomethylcarbamoyl)methyl 7-(3-methylpiperazin-1-yl)-1-cyclopropyl-6-fluoro-1,4-dihydro-8-methoxy-4-oxoquinoline-3-carboxylate] | statistically significant decrease (p=0.007) | no signs of any cytotoxicity
not significantly different | COc1c(N2C[C@@H]3CCCN[C@@H]3C2)c(F)cc2c(=O)c(C(=O)OCC(=O)NC(P(=O)(O)O)P(=O)(O)O)cn(C3CC3)c12 [Compound 52, (1,1-Bisphosphonomethylcarbamoyl)methyl 1-cyclopropyl-6-fluoro-1,4-dihydro-7-((4aS,7aS)-octahydropyrrolo[3,4-b]pyridin-6-yl)-8-methoxy-4-oxoquinoline-3-carboxylate] | – | –
